# Experimental data: ChEMBL document CHEMBL4616705, “Computer-Aided Fragment Growing Strategies to Design Dual Inhibitors of Soluble Epoxide Hydrolase and LTA4 Hydrolase” (ACS Med Chem Lett, 2020)
# pIC50: −log10 of the molar value.
# How the values were obtained:
# [1] = target: T1, Bifunctional epoxide hydrolase 2 (Homo sapiens, UniProt P34913); test: (§1) Inhibition of recombinant human full length sEH (1 to 555 residues) expressed in Escherichia coli BL21 DE3 cells assessed as reduction in 6-methoxynaphthaldehyde formation using PHOME as substrate incubated for 45 mins followed by substrate addition and measured for 45 mins by fluorescence based assay
# T1 sequence (P34913 whole entry): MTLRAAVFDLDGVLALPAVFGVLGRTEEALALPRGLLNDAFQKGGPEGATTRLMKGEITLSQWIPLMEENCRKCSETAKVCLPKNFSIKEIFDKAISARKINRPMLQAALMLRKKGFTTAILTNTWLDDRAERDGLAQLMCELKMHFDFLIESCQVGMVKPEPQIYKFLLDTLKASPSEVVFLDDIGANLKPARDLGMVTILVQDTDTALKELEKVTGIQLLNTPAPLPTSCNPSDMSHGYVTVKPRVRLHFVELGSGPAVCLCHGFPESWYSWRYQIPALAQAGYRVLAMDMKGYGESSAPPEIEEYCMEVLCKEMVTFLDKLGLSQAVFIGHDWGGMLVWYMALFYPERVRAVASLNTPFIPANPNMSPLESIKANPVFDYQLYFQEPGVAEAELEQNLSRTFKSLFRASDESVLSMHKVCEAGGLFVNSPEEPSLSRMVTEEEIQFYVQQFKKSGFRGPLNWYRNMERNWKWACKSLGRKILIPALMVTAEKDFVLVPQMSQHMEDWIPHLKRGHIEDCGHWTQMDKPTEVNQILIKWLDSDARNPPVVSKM
# [2] = target: T2, Leukotriene A-4 hydrolase (Homo sapiens) (UniProt P09960); test: (§2) Inhibition of recombinant human full length C-terminal His6-tagged LTA4H expressed in Escherichia coli BL21 DE3 cells assessed as reduction in amino-4-methylcoumarin formation using L-arginine-7-amino-4-methylcoumarin as substrate at 10 uM incubated for 30 mins followed by substrate addition and measured for 30 mins by fluorescence based assay relative to control
# T2 sequence (whole entry): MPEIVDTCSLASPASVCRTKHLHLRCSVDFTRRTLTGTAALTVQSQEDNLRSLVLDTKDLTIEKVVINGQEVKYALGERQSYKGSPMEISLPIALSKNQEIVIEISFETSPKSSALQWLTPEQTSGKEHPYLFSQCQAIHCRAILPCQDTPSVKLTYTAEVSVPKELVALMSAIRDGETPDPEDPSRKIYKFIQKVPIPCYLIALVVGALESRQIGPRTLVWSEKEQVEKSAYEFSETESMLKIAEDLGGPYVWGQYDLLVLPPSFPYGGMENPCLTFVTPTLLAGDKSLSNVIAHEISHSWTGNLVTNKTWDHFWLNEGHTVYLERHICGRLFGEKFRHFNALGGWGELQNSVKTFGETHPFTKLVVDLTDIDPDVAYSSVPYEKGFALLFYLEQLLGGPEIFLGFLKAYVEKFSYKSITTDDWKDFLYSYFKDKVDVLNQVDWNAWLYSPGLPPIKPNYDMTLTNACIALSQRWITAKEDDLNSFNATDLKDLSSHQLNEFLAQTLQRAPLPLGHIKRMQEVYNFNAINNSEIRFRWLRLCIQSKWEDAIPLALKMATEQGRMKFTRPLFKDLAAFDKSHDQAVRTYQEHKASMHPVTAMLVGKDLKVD
# [3] = target: T3, Leukotriene A-4 hydrolase (Homo sapiens, UniProt P09960); test: as §2, with “substrate” for “substrate at 10 uM”, “assay” for “assay relative to control”
# T3 sequence (P09960 whole entry): T2 sequence (whole entry)
# [4] = target: T4, Bifunctional epoxide hydrolase 2 (Homo sapiens) (UniProt P34913); test: as §1, with “as substrate at 10 uM incubated for” for “as substrate incubated for”, “based assay relative to control” for “based assay”
# T4 sequence (whole entry): T1 sequence (P34913 whole entry)
pIC50 [1],inhibition [2] [%],pIC50 [3],inhibition [4] [%],SMILES
5.00,4,,,O=C(CCc1ccc(OCc2ccccc2)cc1)NCC1CCN(c2cccc(Br)c2)C1 (stereo not given)
4.55,,5.49,,O=C(CCc1ccc(OCc2ccccc2)cc1)NCCC1CCN(Cc2ccccc2)C1 (stereo not given)
6.30,,,,O=C(CCc1ccc(OCc2ccccc2)cc1)NCC1CCN(Cc2cccs2)CC1
4.82,,,,O=C(CCc1ccc(OCc2ccccc2)cc1)NCC1CCCN(CCc2ccccc2)C1 (stereo not given)
5.89,16,,,O=C(CCc1ccc(OCc2ccccc2)cc1)Nc1ccc(CCN2CCOCC2)cc1
,,4.74,7,O=C(CCc1ccc(OCc2ccccc2)cc1)NCC1CCN(CCCc2ccccc2)CC1
5.33,,,,CCOP(=O)(OCC)c1ccc(NC(=O)CCc2ccc(OCc3ccccc3)cc2)cc1
4.80,16,,,O=C(CCc1ccc(OCc2ccccc2)cc1)Nc1ccc(OCCN2CCCCCC2)cc1
,9,,6,O=C(CCc1ccc(OCc2ccccc2)cc1)Nc1ccc(S(=O)(=O)NCC(F)(F)F)cc1
